PubChem BioAssay (NCI)
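At the GI50, growth is halved. TGI is the concentration that stops growth completely.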

What was measured:
Experiment in all cases: inhibition of tumour cell growth, NCI panel, 384-well format
KM12 colon = tested on: KM12 colon
HOP-62 NSCLC = tested on: HOP-62 NSCLC
T-47D breast = tested on: T-47D breast
SNB-75 CNS = tested on: SNB-75 CNS
LOX IMVI melanoma = tested on: LOX IMVI melanoma
SK-OV-3 ovarian = tested on: SK-OV-3 ovarian
SF-268 CNS = tested on: SF-268 CNS
SN12C renal = tested on: SN12C renal
HOP-92 NSCLC = tested on: HOP-92 NSCLC
RPMI-8226 leukemia = tested on: RPMI-8226 leukemia
HT29 colon = tested on: HT29 colon
CCRF-CEM leukemia = tested on: CCRF-CEM leukemia
SW-620 colon = tested on: SW-620 colon
HCT-15 colon = tested on: HCT-15 colon
PC-3 prostate = tested on: PC-3 prostate
UO-31 renal = tested on: UO-31 renal
K-562 leukemia = tested on: K-562 leukemia
MDA-MB-231 breast = tested on: MDA-MB-231 breast
TK-10 renal = tested on: TK-10 renal
CAKI-1 renal = tested on: CAKI-1 renal
SK-MEL-28 melanoma = tested on: SK-MEL-28 melanoma
SF-295 CNS = tested on: SF-295 CNS
M14 melanoma = tested on: M14 melanoma
NCI-H226 lung = tested on: NCI-H226 lung
786-0 renal = tested on: 786-0 renal
DU-145 prostate = tested on: DU-145 prostate
UACC-62 melanoma = tested on: UACC-62 melanoma
NCI-H23 lung = tested on: NCI-H23 lung
NCI-H460 NSCLC = tested on: NCI-H460 NSCLC
HS 578T breast = tested on: HS 578T breast
OVCAR-5 ovarian = tested on: OVCAR-5 ovarian
ACHN renal = tested on: ACHN renal
OVCAR-8 ovarian = tested on: OVCAR-8 ovarian
HCT-116 colon = tested on: HCT-116 colon
MDA-MB-468 breast = tested on: MDA-MB-468 breast
MDA-MB-435 melanoma = tested on: MDA-MB-435 melanoma
RXF 393 renal = tested on: RXF 393 renal
IGROV1 ovarian = tested on: IGROV1 ovarian
HL-60(TB) leukemia = tested on: HL-60(TB) leukemia
NCI-H522 lung = tested on: NCI-H522 lung
NCI-H322M lung = tested on: NCI-H322M lung
MOLT-4 leukemia = tested on: MOLT-4 leukemia
SNB-19 CNS = tested on: SNB-19 CNS
MALME-3M melanoma = tested on: MALME-3M melanoma
U251 glioblastoma = tested on: U251 glioblastoma
NCI/ADR-RES ovarian = tested on: NCI/ADR-RES ovarian
SF-539 CNS = tested on: SF-539 CNS
MCF7 breast = tested on: MCF7 breast
BT-549 breast = tested on: BT-549 breast
OVCAR-4 ovarian = tested on: OVCAR-4 ovarian
EKVX NSCLC = tested on: EKVX NSCLC
UACC-257 melanoma = tested on: UACC-257 melanoma
A498 renal = tested on: A498 renal
OVCAR-3 ovarian = tested on: OVCAR-3 ovarian
A549 NSCLC = tested on: A549 NSCLC
SK-MEL-5 melanoma = tested on: SK-MEL-5 melanoma
HCC-2998 colon = tested on: HCC-2998 colon
COLO 205 colon = tested on: COLO 205 colon

C[C@@H]1CN(Cc2ccc(F)cc2)[C@@H](C)CN1C(=O)c1cc2c(C(=O)C(=O)N(C)C)cn(C)c2cc1Cl
GI50 (KM12 colon): 14.8 µM | TGI (KM12 colon): 29.7 µM | GI50 (HOP-62 NSCLC): 10.8 µM | TGI (HOP-62 NSCLC): 24.1 µM | GI50 (T-47D breast): 1.99 µM | TGI (T-47D breast): 17.2 µM | GI50 (SNB-75 CNS): 15.7 µM | TGI (SNB-75 CNS): 33.8 µM | GI50 (LOX IMVI melanoma): 14.8 µM | TGI (LOX IMVI melanoma): 28.5 µM | GI50 (SK-OV-3 ovarian): 19.6 µM | TGI (SK-OV-3 ovarian): 42.7 µM | GI50 (SF-268 CNS): 2.33 µM | TGI (SF-268 CNS): 14.7 µM | GI50 (SN12C renal): 15.8 µM | TGI (SN12C renal): 31.7 µM | GI50 (HOP-92 NSCLC): 17.1 µM | TGI (HOP-92 NSCLC): 31.2 µM | GI50 (RPMI-8226 leukemia): 12.2 µM | TGI (RPMI-8226 leukemia): 24.7 µM | GI50 (HT29 colon): 12.7 µM | TGI (HT29 colon): 27 µM | GI50 (CCRF-CEM leukemia): 15.3 µM | TGI (CCRF-CEM leukemia): 28.8 µM | GI50 (SW-620 colon): 18 µM | TGI (SW-620 colon): 40.9 µM | GI50 (HCT-15 colon): 19.8 µM | TGI (HCT-15 colon): 39.3 µM | GI50 (PC-3 prostate): 18.6 µM | TGI (PC-3 prostate): 35 µM | GI50 (UO-31 renal): 15.1 µM | TGI (UO-31 renal): 29.6 µM | GI50 (K-562 leukemia): 7.01 µM | TGI (K-562 leukemia): 20.8 µM | GI50 (MDA-MB-231 breast): 23.2 µM | TGI (MDA-MB-231 breast): 61.9 µM | GI50 (TK-10 renal): 23.8 µM | TGI (TK-10 renal): 52.3 µM | GI50 (CAKI-1 renal): 15.4 µM | TGI (CAKI-1 renal): 41 µM | GI50 (SK-MEL-28 melanoma): 16.1 µM | TGI (SK-MEL-28 melanoma): 31.6 µM | GI50 (SF-295 CNS): 16.4 µM | TGI (SF-295 CNS): 31.9 µM | GI50 (M14 melanoma): 14.1 µM | TGI (M14 melanoma): 28.8 µM | GI50 (NCI-H226 lung): 10.3 µM | TGI (NCI-H226 lung): 23.9 µM | GI50 ([…]-0 renal): 13.6 µM | TGI (786-0 renal): 28.5 µM | GI50 (DU-145 prostate): 19.1 µM | TGI (DU-145 prostate): 37.8 µM | GI50 (UACC-62 melanoma): 8.17 µM | TGI (UACC-62 melanoma): 20.9 µM | GI50 (NCI-H23 lung): 20.1 µM | TGI (NCI-H23 lung): 44.5 µM | GI50 (NCI-H460 NSCLC): 12.7 µM | TGI (NCI-H460 NSCLC): 26.9 µM | GI50 (HS 578T breast): 12.7 µM | TGI (HS 578T breast): 26.5 µM | GI50 (OVCAR-5 ovarian): 19.9 µM | TGI (OVCAR-5 ovarian): 52.1 µM | GI50 (ACHN renal): 14.4 µM | TGI (ACHN renal): 43 µM | GI50 (OVCAR-8 ovarian): 17.9 µM | TGI (OVCAR-8 ovarian): 38.9 µM | GI50 (HCT-116 colon): 16.1 µM | TGI (HCT-116 colon): 30.5 µM | GI50 (MDA-MB-468 breast): 2.8 µM | TGI (MDA-MB-468 breast): 17.4 µM | GI50 (MDA-MB-435 melanoma): 15.5 µM | TGI (MDA-MB-435 melanoma): 31.1 µM | GI50 (RXF 393 renal): 14.9 µM | TGI (RXF 393 renal): 28.9 µM | GI50 (IGROV1 ovarian): 14.2 µM | TGI (IGROV1 ovarian): 28.3 µM | GI50 (HL-60(TB) leukemia): 20.7 µM | TGI (HL-60(TB) leukemia): 35.1 µM | GI50 (NCI-H522 lung): 20.5 µM | TGI (NCI-H522 lung): 38.1 µM | GI50 (NCI-H322M lung): 17.5 µM | TGI (NCI-H322M lung): 35.3 µM | GI50 (MOLT-4 leukemia): 12.9 µM | TGI (MOLT-4 leukemia): 25.7 µM | GI50 (SNB-19 CNS): 24.1 µM | TGI (SNB-19 CNS): 58.1 µM | GI50 (MALME-3M melanoma): 18.3 µM | TGI (MALME-3M melanoma): 32.6 µM | GI50 (U251 glioblastoma): 16.4 µM | TGI (U251 glioblastoma): 30.7 µM | GI50 (NCI/ADR-RES ovarian): 18.3 µM | TGI (NCI/ADR-RES ovarian): 41.6 µM | GI50 (SF-539 CNS): 17.2 µM | TGI (SF-539 CNS): 31.3 µM | GI50 (MCF7 breast): 10.8 µM | TGI (MCF7 breast): 24.1 µM | GI50 (BT-549 breast): 17.7 µM | TGI (BT-549 breast): 31.8 µM | GI50 (OVCAR-4 ovarian): 22.4 µM | TGI (OVCAR-4 ovarian): 46.9 µM | GI50 (EKVX NSCLC): 15.3 µM | TGI (EKVX NSCLC): 35 µM | GI50 (UACC-257 melanoma): 19.7 µM | TGI (UACC-257 melanoma): 34.1 µM | GI50 (A498 renal): 13.6 µM | TGI (A498 renal): 29.2 µM | GI50 (OVCAR-3 ovarian): 17.8 µM | TGI (OVCAR-3 ovarian): 32.1 µM | GI50 (A549 NSCLC): 13.8 µM | TGI (A549 NSCLC): 35.5 µM | GI50 (SK-MEL-5 melanoma): 7.47 µM | TGI (SK-MEL-5 melanoma): 20.5 µM | GI50 (HCC-2998 colon): 17.1 µM | TGI (HCC-2998 colon): 31.5 µM | GI50 (COLO 205 colon): 10.9 µM | TGI (COLO 205 colon): 23.7 µM
